From US8133913B2, “Substituted indeno [1,2-b]indole derivatives as novel inhibitors of protein kinase CK2 and their use as tumor therapeutic agents, cytostatics and diagnostic aids” (Heinrich-Heine Universitat Dusseldof, priority 2006, dated 2012)
pIC50: −log10 of the molar value. Like-named read-outs stand apart in the source and are kept apart here.

Assays:
5637 = assay: Proliferation of tumor cell lines (Bracht et al.); format: cell-based; conditions: for activity at 20 µM: 5637, tested at 20 μM, read-out: T/C (%) Mean
PLK1 = molecular target: T1, PLK1 (Homo sapiens, UniProt P53350); assay: Radiometric protein kinase assay (33PanQinase Activity Assay); format: biochemical; conditions: for IC50: 1 μM ATP, read-out: IC50 values [μM] PLK1
T1 construct: made in house; host or cells: Sf9 insect cells, baculovirus
Source text: (§1) AKTI1, ARK5, Aurora-A, Aurora-B, B-RAF-VE, CDK2/CycA, CDK4/CycD1, CK2-alpha1 (catalytic subunit of CK2), EGF-R, EPHB4, ERBB2, FAK, IGF1-R, SRC, VEGF-R2, VEGF-R3, FLT3, INS-R, MET, PDGFR-beta, PLK1, SAK, TIE2, COT.
(§2) All the protein kinases were expressed in Sf9 insect cells as human recombinant GST fusion proteins or His-tagged proteins by the baculovirus expression system. Kinases were purified by affinity chromatography either by GSH-agarose (Sigma) or Ni—NTH-agarose (Qiagen). The purity of the kinases was tested by SDS-PAGE/silver staining, and the identity of the kinases was verified by Western blot analysis with specific antibodies or mass spectroscopy.
(§3) A radiometric protein kinase assay (33PanQinase® Activity Assay) was used to measure the kinase activity for the 24 protein kinases. The kinase assays were carried out in 96-well FlashPlates™ from Perkin Elmer/NEN (Boston, Mass., USA) in a reaction volume of 50 μl. The reaction mixture was pipetted in 4 steps in the following sequence: • 20 μl of assay buffer • 5 μl of ATP solution (in H2O) • 5 μl of test compound (in 10% DMSO) • 10 μl of substrate/10 μl of enzyme solution (premixed)
(§4) The assays for all the enzymes contained 60 mM HEPES-NaOH, pH 7.5, 3 mM MgCl2, 3 mM MnCl2, 3 μM Na orthovanadate, 1.2 mM DTT, 50 μg/ml PEG20000, 1 μM [γ-^33P]-ATP (about 5×10^5 cpm per well).
(§5) The reaction mixture was incubated at 30° C. for 80 minutes. The reaction was stopped with 50 μl of 2% (v/v) H3PO4. The plates were aspirated and washed twice with 200 μl of 0.9% (w/v) NaCl. The incorporation of ^33Pi was determined using a microtiter plates scintillation counter (Microbeta Trilux, Wallac).

ARK5 = molecular target: T2, ARK5 (Homo sapiens, UniProt O60285); assay: as above; format: biochemical; conditions: for IC50: 1 μM ATP, read-out: IC50 values [μM] ARK5
T2 construct: made in house; host or cells: Sf9 insect cells, baculovirus
T2 sequence (O60285 1-661): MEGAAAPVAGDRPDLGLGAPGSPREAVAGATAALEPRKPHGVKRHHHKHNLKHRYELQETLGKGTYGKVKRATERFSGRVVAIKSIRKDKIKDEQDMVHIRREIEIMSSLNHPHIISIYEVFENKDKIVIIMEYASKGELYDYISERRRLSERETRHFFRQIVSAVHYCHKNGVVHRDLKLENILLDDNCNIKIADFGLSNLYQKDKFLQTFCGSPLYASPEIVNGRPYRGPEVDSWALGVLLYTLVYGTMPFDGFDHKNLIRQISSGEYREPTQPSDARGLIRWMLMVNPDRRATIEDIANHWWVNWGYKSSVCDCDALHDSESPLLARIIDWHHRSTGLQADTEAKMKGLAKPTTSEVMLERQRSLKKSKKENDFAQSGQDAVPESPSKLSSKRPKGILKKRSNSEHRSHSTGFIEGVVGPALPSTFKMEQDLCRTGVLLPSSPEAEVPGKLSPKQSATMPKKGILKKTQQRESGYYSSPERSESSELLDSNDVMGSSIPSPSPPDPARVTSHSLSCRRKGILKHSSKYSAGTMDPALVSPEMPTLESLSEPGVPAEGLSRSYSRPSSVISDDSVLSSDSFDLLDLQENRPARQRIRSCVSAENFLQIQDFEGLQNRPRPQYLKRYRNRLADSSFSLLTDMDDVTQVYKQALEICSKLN
Source text: as §1, §2, §3, §4, §5

CDK2/CycA = molecular target: T3, CDK2/CycA (Homo sapiens, UniProt P24941); assay: as above; format: biochemical; conditions: for IC50: 1 μM ATP, read-out: IC50 values [μM] CDK2/CycA
T3 construct: made in house; host or cells: Sf9 insect cells, baculovirus
Source text: as §1, §2, §3, §4, §5

VEGF-R2 = molecular target: T4, VEGF-R2 (Homo sapiens, UniProt P35968); assay: as above; format: biochemical; conditions: for IC50: 1 μM ATP, read-out: IC50 values [μM] VEGF-R2
T4 construct: made in house; host or cells: Sf9 insect cells, baculovirus
Source text: as §1, §2, §3, §4, §5

ERBB2 = molecular target: T5, ERBB2 (Homo sapiens, UniProt P04626); assay: as above; format: biochemical; conditions: for IC50: 1 μM ATP, read-out: IC50 values [μM] ERBB2
T5 construct: made in house; host or cells: Sf9 insect cells, baculovirus
T5 sequence (P04626 23-1255): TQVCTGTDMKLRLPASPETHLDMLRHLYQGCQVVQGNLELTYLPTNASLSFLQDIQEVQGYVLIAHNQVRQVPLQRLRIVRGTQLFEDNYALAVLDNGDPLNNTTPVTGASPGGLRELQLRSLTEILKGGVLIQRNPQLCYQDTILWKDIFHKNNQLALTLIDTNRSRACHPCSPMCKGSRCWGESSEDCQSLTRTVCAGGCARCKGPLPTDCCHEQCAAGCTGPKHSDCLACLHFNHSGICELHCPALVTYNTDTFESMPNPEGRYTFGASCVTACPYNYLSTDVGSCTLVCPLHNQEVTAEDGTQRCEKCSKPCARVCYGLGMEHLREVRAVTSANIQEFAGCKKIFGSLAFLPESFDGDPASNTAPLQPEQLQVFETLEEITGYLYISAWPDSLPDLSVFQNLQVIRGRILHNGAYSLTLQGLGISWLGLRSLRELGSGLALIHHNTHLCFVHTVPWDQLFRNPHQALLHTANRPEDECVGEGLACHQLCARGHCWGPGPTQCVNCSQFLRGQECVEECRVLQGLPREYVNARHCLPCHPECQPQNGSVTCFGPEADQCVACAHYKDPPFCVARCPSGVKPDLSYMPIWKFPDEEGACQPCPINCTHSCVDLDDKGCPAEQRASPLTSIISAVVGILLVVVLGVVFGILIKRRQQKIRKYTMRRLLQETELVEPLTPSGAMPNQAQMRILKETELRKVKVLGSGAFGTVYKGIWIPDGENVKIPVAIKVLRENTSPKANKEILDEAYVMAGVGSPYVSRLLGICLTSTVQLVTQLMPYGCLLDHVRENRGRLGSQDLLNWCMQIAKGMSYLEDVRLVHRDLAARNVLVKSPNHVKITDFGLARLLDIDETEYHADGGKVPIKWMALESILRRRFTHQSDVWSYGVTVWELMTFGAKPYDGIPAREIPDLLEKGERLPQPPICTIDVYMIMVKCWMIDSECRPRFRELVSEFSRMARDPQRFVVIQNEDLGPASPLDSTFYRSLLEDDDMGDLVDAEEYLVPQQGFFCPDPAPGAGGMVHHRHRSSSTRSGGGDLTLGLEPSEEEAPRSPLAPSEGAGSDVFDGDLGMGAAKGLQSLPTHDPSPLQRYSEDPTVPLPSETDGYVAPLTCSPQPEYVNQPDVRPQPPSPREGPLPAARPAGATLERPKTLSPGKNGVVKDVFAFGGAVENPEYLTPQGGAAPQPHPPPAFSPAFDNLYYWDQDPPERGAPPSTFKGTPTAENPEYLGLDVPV
Source text: as §1, §2, §3, §4, §5

TIE2 = molecular target: T6, TIE2 (Homo sapiens, UniProt Q02763); assay: as above; format: biochemical; conditions: for IC50: 1 μM ATP, read-out: IC50 values [μM] TIE2
T6 construct: made in house; host or cells: Sf9 insect cells, baculovirus
T6 sequence (Q02763 23-1124): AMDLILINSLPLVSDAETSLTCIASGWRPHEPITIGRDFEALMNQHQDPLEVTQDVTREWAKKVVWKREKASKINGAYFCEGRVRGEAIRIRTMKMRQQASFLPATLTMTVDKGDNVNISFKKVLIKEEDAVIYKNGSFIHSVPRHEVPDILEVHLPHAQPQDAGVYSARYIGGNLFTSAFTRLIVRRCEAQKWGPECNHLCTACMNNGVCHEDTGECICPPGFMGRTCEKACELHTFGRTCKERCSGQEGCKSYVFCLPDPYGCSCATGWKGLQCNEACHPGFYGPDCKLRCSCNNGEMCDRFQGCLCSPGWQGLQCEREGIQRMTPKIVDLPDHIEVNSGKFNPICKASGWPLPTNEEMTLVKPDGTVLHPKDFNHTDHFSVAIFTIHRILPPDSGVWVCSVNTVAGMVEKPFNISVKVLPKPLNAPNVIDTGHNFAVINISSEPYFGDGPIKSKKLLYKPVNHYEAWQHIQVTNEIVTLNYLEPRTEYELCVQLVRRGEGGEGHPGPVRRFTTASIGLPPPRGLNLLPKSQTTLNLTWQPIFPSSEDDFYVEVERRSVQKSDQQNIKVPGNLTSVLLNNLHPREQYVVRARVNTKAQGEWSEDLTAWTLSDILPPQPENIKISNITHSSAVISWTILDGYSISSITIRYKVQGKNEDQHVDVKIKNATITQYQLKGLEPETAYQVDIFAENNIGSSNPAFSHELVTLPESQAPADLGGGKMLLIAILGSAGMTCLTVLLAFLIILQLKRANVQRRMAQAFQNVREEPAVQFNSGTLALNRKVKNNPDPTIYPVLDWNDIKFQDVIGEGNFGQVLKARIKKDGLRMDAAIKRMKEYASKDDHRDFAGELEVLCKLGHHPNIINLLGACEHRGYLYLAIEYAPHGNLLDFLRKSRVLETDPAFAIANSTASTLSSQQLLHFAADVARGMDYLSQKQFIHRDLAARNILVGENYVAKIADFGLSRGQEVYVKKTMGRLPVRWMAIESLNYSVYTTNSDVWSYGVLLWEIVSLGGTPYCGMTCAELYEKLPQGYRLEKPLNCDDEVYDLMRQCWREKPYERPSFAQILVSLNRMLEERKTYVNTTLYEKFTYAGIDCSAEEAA
Source text: as §1, §2, §3, §4, §5

FAK = molecular target: T7, FAK (Homo sapiens, UniProt Q05397); assay: as above; format: biochemical; conditions: for IC50: 1 μM ATP, read-out: IC50 values [μM] FAK
T7 construct: made in house; host or cells: Sf9 insect cells, baculovirus
T7 sequence (Q05397 whole entry): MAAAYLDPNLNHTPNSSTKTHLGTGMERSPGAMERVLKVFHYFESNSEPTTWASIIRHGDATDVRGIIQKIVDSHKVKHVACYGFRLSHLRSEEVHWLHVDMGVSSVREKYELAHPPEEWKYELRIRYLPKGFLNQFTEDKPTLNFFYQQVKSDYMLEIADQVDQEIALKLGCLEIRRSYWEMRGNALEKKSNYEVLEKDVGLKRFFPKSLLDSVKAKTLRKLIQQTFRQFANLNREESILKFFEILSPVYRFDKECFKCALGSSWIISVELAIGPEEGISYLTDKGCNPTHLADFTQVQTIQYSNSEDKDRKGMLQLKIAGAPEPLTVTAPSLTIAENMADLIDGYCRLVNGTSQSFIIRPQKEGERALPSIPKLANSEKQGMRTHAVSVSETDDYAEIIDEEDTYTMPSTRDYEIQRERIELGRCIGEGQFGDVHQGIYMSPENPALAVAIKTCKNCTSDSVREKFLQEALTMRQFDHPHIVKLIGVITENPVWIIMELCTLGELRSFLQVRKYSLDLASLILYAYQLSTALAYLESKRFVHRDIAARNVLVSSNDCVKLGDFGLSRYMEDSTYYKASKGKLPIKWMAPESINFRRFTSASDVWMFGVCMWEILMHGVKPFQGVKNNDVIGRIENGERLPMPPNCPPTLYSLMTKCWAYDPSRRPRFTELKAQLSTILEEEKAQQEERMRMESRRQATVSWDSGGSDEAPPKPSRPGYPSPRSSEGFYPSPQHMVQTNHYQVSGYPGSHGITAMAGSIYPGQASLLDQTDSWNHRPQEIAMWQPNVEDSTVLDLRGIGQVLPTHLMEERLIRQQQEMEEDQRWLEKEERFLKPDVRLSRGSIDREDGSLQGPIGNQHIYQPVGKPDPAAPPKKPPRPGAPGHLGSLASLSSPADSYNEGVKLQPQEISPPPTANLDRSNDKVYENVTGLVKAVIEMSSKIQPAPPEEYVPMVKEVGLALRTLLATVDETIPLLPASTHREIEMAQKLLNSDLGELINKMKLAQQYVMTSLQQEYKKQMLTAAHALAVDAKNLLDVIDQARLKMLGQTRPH
Source text: as §1, §2, §3, §4, §5

MET = molecular target: T8, MET (Homo sapiens, UniProt P08581); assay: as above; format: biochemical; conditions: for IC50: 1 μM ATP, read-out: IC50 values [μM] MET
T8 construct: made in house; host or cells: Sf9 insect cells, baculovirus
T8 sequence (P08581 25-1390): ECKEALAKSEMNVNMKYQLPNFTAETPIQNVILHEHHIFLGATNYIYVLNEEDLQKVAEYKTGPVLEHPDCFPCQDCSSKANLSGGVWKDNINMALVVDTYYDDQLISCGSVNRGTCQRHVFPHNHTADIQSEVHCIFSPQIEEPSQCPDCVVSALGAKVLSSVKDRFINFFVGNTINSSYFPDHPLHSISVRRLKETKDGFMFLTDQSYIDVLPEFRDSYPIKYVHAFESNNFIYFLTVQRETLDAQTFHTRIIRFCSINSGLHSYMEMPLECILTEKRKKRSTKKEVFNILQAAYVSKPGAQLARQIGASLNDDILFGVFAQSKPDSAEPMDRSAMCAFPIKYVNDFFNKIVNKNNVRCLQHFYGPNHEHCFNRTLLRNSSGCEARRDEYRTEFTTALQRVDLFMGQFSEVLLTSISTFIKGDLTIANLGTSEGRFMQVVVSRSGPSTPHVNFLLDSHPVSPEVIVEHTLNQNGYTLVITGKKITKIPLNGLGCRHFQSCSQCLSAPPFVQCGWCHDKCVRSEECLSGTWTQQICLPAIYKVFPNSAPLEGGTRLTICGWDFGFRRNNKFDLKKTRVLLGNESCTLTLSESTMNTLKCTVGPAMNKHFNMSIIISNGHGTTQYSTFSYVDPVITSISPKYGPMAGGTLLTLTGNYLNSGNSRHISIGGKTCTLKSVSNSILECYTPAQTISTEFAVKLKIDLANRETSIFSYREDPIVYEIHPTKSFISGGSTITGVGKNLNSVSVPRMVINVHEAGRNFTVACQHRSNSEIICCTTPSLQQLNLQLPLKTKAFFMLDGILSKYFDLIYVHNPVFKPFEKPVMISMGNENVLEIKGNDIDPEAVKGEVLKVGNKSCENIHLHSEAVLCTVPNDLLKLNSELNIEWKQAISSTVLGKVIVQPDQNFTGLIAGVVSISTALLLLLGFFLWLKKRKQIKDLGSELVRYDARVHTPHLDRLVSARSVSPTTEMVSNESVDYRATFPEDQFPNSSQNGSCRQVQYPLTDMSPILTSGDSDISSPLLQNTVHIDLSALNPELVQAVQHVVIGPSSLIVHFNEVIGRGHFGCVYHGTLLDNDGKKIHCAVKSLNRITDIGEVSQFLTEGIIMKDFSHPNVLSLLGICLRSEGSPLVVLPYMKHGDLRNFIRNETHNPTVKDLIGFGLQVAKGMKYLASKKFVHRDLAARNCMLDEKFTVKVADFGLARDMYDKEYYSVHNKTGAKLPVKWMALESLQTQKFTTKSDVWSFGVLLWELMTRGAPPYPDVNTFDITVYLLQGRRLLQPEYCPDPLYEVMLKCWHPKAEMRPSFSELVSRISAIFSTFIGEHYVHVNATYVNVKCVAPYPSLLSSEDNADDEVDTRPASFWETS
Source text: as §1, §2, §3, §4, §5

INS-R = molecular target: T9, INS-R (Homo sapiens, UniProt P06213); assay: as above; format: biochemical; conditions: for IC50: 1 μM ATP, read-out: IC50 values [μM] INS-R
T9 construct: made in house; host or cells: Sf9 insect cells, baculovirus
Source text: as §1, §2, §3, §4, §5

EGF-R = molecular target: T10, EGF-R (Homo sapiens, UniProt P00533); assay: as above; format: biochemical; conditions: 1 μM ATP
T10 construct: made in house; host or cells: Sf9 insect cells, baculovirus

LCLC = assay: Proliferation of tumor cell lines (Bracht et al.); format: cell-based; conditions: read-out: IC50 (μM) Mean, inhibition of cell proliferation
PDGFR-beta = molecular target: T11, PDGFR-beta (Homo sapiens, UniProt P09619); assay: Radiometric protein kinase assay (33PanQinase Activity Assay); format: biochemical; conditions: 1 μM ATP
T11 construct: made in house; host or cells: Sf9 insect cells, baculovirus

[1] = molecular target: T12, human CK2 protein kinase (holoenzyme) (Homo sapiens, UniProt P68400); assay: Inhibition of recombinant human CK2 protein kinase (holoenzyme), radiometric filter assay with peptide […]; format: biochemical
T12 construct: made in house; host or cells: E. coli BL21(DE3), pT7-7 or bicistronic pET11d-CK2α, β

DAN-G = assay: Proliferation of tumor cell lines (Bracht et al.); format: cell-based; conditions: read-out: IC50 (μM) Mean, inhibition of cell proliferation
[2] = molecular target: T13, CK2-alpha1 (catalytic subunit of CK2) (Homo sapiens, UniProt P68400); assay: Radiometric protein kinase assay (33PanQinase Activity Assay); format: biochemical; conditions: 1 μM ATP, substrate casein
T13 construct: made in house; host or cells: Sf9 insect cells, baculovirus

MCF-7 = assay: Proliferation of tumor cell lines (Bracht et al.); format: cell-based; conditions: Homo sapiens, MCF7, read-out: IC50 (μM) Mean, inhibition of cell proliferation

SMILES | activity at 20 µM 5637 [%] | IC50 (EGF-R) [µM] | IC50 (PDGFR-beta) [µM] | IC50 (PLK1) [µM] | IC50 (ARK5) [µM] | IC50 (CDK2/CycA) [µM] | IC50 (VEGF-R2) [µM] | IC50 (ERBB2) [µM] | IC50 (TIE2) [µM] | IC50 (FAK) [µM] | IC50 (MET) [µM] | IC50 (INS-R) [µM] | other results
CC(C)n1c2c(c3c1-c1ccccc1C3=O)C(=O)CCC2 [Compound 4b, 5-Isopropyl-5,6,7,8-tetrahydroindeno[1,2-b]indole-9,10-dione] | 99 | – | – | – | – | – | – | – | – | – | – | – | pIC50 (PLK1): < 5.00; pIC50 (ARK5): < 5.00; pIC50 (CDK2/CycA): < 5.00; pIC50 (VEGF-R2): < 5.00; pIC50 (ERBB2): < 5.00; pIC50 (TIE2): < 5.00; pIC50 (FAK): < 5.00; pIC50 (MET): < 5.00; pIC50 (INS-R): < 5.00
O=c1ccc(=O)c2c1c1c(=O)c3ccccc3c1n2Cc1ccccc1 [Compound 6c, 5-Benzyl 5,6,9,10-tetrahydroindeno[1,2-b]indole-6,9,10-trione] | 0.44 | 2.5 | > 10 | > 10 | 1.3 | > 10 | 3.3 | 7.6 | 4.7 | > 10 | > 10 | 6.5 | IC50 (5637; 5637, read-out: IC50 (μM) Mean, inhibition of cell proliferation): 2.75 µM; IC50 (LCLC): 4.14 µM; inhibition at 10 µM ([1]; 10 μM compound, DMSO control = 100% CK2 activity, at least three independent experiments): 60%; pIC50 ([1]; concentration range 30 μM to 0.01 μM, 100 μM ATP in assay buffer): 5.83; IC50 (DAN-G): > 20 µM; IC50 [2]: > 10 µM; IC50 (MCF-7): 3.27 µM
CC(C)n1c2c(=O)ccc(=O)c2c2c(=O)c3ccccc3c21 [Compound 6b, 5-Isopropyl-5H-indeno[1,2-b]indole-6,9,10-trione] | -1.73 | > 10 | > 10 | > 10 | 0.17 | > 10 | 1.9 | > 10 | 3.2 | > 10 | > 10 | 1.6 | –
